The values that follow come from ChEMBL document CHEMBL1201862, “PubChem BioAssay data set” (2004).

Test in all cases: growth of human tumour cells (NCI), 48 h
Assay [1] deals with CAKI-1.
For assay [2], the system named is OVCAR-8.
Assay [3] relates to HCC 2998.
The test system of assay [4] is OVCAR-4.
For assay [5], the system named is SF-268.
Assay [6] concerns A549.
Assay [7] deals with COLO 205.
Assay [8] relates to DU-145.
Assay [9] relates to K562.
Assay [10] concerns HL-60.
For assay [11], the system named is TK-10.
For assay [12], the system named is 786-0.
Assay [13] relates to PC-3.
In assay [14] the test system is UACC-62.
For assay [15], the system named is NCI/ADR-RES.
The subject of assay [16] is UACC-257.
In assay [17] the test system is HT-29.
Assay [18] concerns M14.
Assay [19] deals with SK-OV-3.

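Grown in 96-well plates, cells were treated for 48 hours with each compound at five concentrations. Insufficient inhibition: endpoint recorded as highest concentration tested. At the GI50, growth is halved.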 Activity calls are given as the source filed them. Cut-off read from the data, not from the text of the source: active = GI50 up to about 1.1 µM and inactive = higher.

On to `O=C(NCCCN(CCCCN(CCCNC(=O)c1cc(S(=O)(=O)O)cc(O)c1O)C(=O)c1cc(S(=O)(=O)O)cc(O)c1O)C(=O)c1cc(S(=O)(=O)O)cc(O)c1O)c1cc(S(=O)(=O)O)cc(O)c1O`, for which the GI50 in [1], in assay [2], in assay [3], in assay [4], in assay [5] and in assay [6] was > 100 µM (inactive) each time. Besides, the GI50 is > 100 µM (inactive) in assay [7]; > 100 µM (inactive) in assay [8]; > 100 µM (inactive) in [9]; 66.1 µM (inactive) in assay [10]; > 100 µM (inactive) in assay [11]; > 100 µM (inactive) in assay [12]. The GI50 in assay [13], in assay [14], in assay [15], in [16] and in assay [17] was > 100 µM (inactive) throughout.

`Cn1c(=O)c2nc(CS(=O)(=O)Cc3nc4c(=O)n(C)c(=O)n(C)c4[nH]3)[nH]c2n(C)c1=O`: the GI50 is > 100 µM (inactive) in assay [1]; > 100 µM (inactive) in assay [2]; 43.1 µM (inactive) in assay [4]; > 100 µM (inactive) in assay [5]; > 100 µM (inactive) in [6]; > 100 µM (inactive) in assay [7]. The GI50 in assay [8], in assay [9], in assay [10], in [18], in assay [11] and in assay [12] was > 100 µM (inactive) each time. The GI50 in assay [19], in assay [13], in [14], in assay [15], in [16] and in [17] was > 100 µM (inactive) each time.

On to `N#CC(C#N)=c1c(=O)c2c3ccccc3cc3cccc1c32`, for which the GI50 in assay [1], in assay [3], in assay [4], in [5], in [6] and in assay [7] was > 100 µM (inactive) each time. Besides, the GI50 in [8] was > 100 µM (inactive); in assay [10], 68.1 µM (inactive); in assay [18], > 100 µM (inactive); in [12], 35.2 µM (inactive); in assay [19], > 100 µM (inactive); in [13], 55.7 µM (inactive). In addition, the GI50 in assay [14], in assay [15], in assay [16] and in assay [17] was > 100 µM (inactive) throughout.

Turning to `CCCC(=O)Nc1cc([N+](=O)[O-])c([N+](=O)[O-])cc1OC`, the GI50 is 16 µM (inactive) in [1]; 16.3 µM (inactive) in assay [2]; 15.4 µM (inactive) in [4]; 16.3 µM (inactive) in [5]; 13.7 µM (inactive) in assay [6]; 15.5 µM (inactive) in assay [7]. In addition, the GI50 in assay [8] was 17.8 µM (inactive); in assay [9] it was 17.5 µM (inactive); in assay [10], 13.1 µM (inactive); in assay [18], 12.8 µM (inactive); in assay [11] it was 17.2 µM (inactive); in assay [12], 26.3 µM (inactive). Besides, the GI50 was 13.9 µM (inactive) in [19]; 27.2 µM (inactive) in [13]; 18.2 µM (inactive) in assay [14]; 39.5 µM (inactive) in assay [15]; 18.3 µM (inactive) in assay [16]; 13.3 µM (inactive) in [17].

In the case of `CC(C)[C@@H](C)[C@@]1(C)C[C@@H]1[C@@H](C)[C@H]1CC[C@@H]([C@@H]2CC=C3C[C@@H](O)CC[C@]3(C)C2=O)[C@]1(C)CCO`, the GI50 in assay [1] is 12.8 µM (inactive); in assay [2], 12.7 µM (inactive); in assay [3], 4.2 µM (inactive); in [4] it was 12.1 µM (inactive); in [5] it was 15.5 µM (inactive); in [7], 11.9 µM (inactive). Moreover, the GI50 was 15.3 µM (inactive) in [8]; 3.49 µM (inactive) in assay [9]; 2.11 µM (inactive) in assay [10]; 11.5 µM (inactive) in assay [11]; 5.53 µM (inactive) in [12]; 10.1 µM (inactive) in assay [13]. For the same compound, the GI50 in assay [14] was 14.6 µM (inactive); in assay [15] it was 13.4 µM (inactive); in assay [16], 14.3 µM (inactive); in [17] it was 2.58 µM (inactive).

For the compound `C/C(=N\NC(N)=S)c1sc(-n2nc(-c3ccccc3)cc2-c2ccccc2)nc1C`, the GI50 in [1] was > 100 µM (inactive); in assay [2] it was > 100 µM (inactive); in assay [3] it was > 100 µM (inactive); in assay [4] it was 74.6 µM (inactive); in assay [5], > 100 µM (inactive); in assay [6], > 100 µM (inactive). Moreover, the GI50 in assay [7] is > 100 µM (inactive); in assay [8], > 100 µM (inactive); in assay [10], 54.6 µM (inactive); in [18] it was > 100 µM (inactive); in assay [11], > 100 µM (inactive); in assay [12] it was > 100 µM (inactive). Also, the GI50 was 62.1 µM (inactive) in [19]; 63.1 µM (inactive) in assay [13]; > 100 µM (inactive) in [14]; 67.1 µM (inactive) in assay [15]; 85.5 µM (inactive) in assay [16]; 37.5 µM (inactive) in [17].

As for `O=c1c2cc(S(=O)(=O)O)ccc2nc(COc2ccc(Oc3ccc(Cl)cc3Cl)cc2)n1C(=S)Nc1ccc(Cl)cc1`, the GI50 was 27.9 µM (inactive) in assay [1]; 21.6 µM (inactive) in [2]; 23.9 µM (inactive) in assay [4]; 16.3 µM (inactive) in assay [5]; 20.5 µM (inactive) in assay [6]; 18 µM (inactive) in assay [7]. The GI50 is 27.7 µM (inactive) in assay [8]; 1.06 µM (active) in assay [9]; 0.457 µM (active) in [10]; 20.2 µM (inactive) in [18]; 18.3 µM (inactive) in [11]; 19.2 µM (inactive) in assay [12]. Moreover, the GI50 in assay [19] was 21.3 µM (inactive); in assay [13], 34.1 µM (inactive); in [14], 15.8 µM (inactive); in assay [15], 17.7 µM (inactive); in assay [16], 25.4 µM (inactive); in [17] it was 20.6 µM (inactive).

For the compound `CCOC(=O)CC(=O)C(=O)NN=C1NCCN1`, the GI50 in assay [2], in assay [3], in [4], in [5], in [6] and in [7] was > 100 µM (inactive) throughout. The GI50 in assay [8], in assay [9], in assay [10], in assay [18], in assay [11] and in assay [12] was > 100 µM (inactive) throughout. Further, the GI50 in assay [19], in [13], in assay [14], in assay [15], in assay [16] and in [17] was > 100 µM (inactive) throughout.

For `COc1cc(/C=C2\C[C@H]3[C@@H]4CC=C5C[C@@H](N6CCCC6)CC[C@]5(C)[C@H]4CC[C@]3(C)[C@H]2OC(C)=O)cc(OC)c1OC`, the GI50 is 17 µM (inactive) in assay [1]; 15 µM (inactive) in assay [2]; 2.38 µM (inactive) in assay [3]; 18.2 µM (inactive) in assay [4]; 14.6 µM (inactive) in [5]; 15.3 µM (inactive) in assay [6]. The GI50 was 12.9 µM (inactive) in assay [7]; 17.3 µM (inactive) in assay [8]; 21.9 µM (inactive) in assay [10]; 15.8 µM (inactive) in [18]; 20.6 µM (inactive) in assay [11]; 11.3 µM (inactive) in [12]. The GI50 in assay [19] was 15.3 µM (inactive); in [13] it was 14.2 µM (inactive); in assay [14], 17.5 µM (inactive); in [15], 16.3 µM (inactive); in assay [16] it was 19.6 µM (inactive); in assay [17], 10 µM (inactive).

Take `c1csc(-c2ccc(-c3ccc(-c4cccs4)s3)s2)c1`: the GI50 in assay [1], in [2], in [3], in [4], in assay [5] and in assay [6] was > 100 µM (inactive) each time. Also, the GI50 in [7], in [8], in assay [10], in assay [18], in assay [11] and in assay [12] was > 100 µM (inactive) each time. Moreover, the GI50 in [19], in [13], in assay [14], in assay [15], in assay [16] and in [17] was > 100 µM (inactive) throughout.

Turning to `CCCCCCNc1n[nH]c(=O)c2c1nnn2Cc1ccccc1`, the GI50 in assay [1], in [2], in assay [3], in assay [4], in assay [6] and in assay [7] was > 100 µM (inactive) in each case. The GI50 in assay [8], in [9], in [10], in assay [18], in assay [11] and in [12] was > 100 µM (inactive) in each case. For the same compound, the GI50 in assay [13], in assay [15], in assay [16] and in assay [17] was > 100 µM (inactive) throughout.
